{"source": "patent US20230220047A1", "about": "“PEPTIDES FOR TREATMENT OF SEPSIS AND CANCER” (NORWEGIAN UNIVERSITY OF SCIENCE AND TECHNOLOGY (NTNU), priority 2020, published 2023)", "assay_type_in_all_cases": "cell-based, human", "key": {"THP-1 cells": {"system": "THP-1 cells", "assay": "Viability of acute myeloid leukaemia cell line THP-1", "conditions": "5-30 μM, 48 h", "protocol": "THP-1 cells were seeded in medium at 10,000 cells/well, as indicated by the dotted line. Cells were incubated for 48 hours in medium supplemented with water, C3A-Pen, P7-Pen, P7-A4-Pen or P7-N4-Pen. The peptides were included at concentrations ranging from 5-30 μM. At 48 hours cells were counted. […] The results with other peptides were less clear-cut. Results are based on 3 biological replicates, error bars show standard deviation of mean.\nThe peptides were tested against the SW480 cell line in the presence and absence of LPS."}, "[1]": {"system": "IH-1 multiple myeloma cells", "assay": "CellTiter-Glo cell viability assay, IH-1", "conditions": "IH-1, 10 μM, 48 h", "protocol": "Minor effects on the proliferation of the IH-1 and RPMI 8226 cell lines are seen. Cells were seeded at the level shown (left-hand bar of each set) then incubated in medium containing water, 10 μM penetratin or 10 μM P7-A4-Pen for 48 hr (except for INA-6 cells, which were incubated with 12.5 μM penetratin or 12.5 μM P7-A4-Pen). The number of viable cells was detected based on quantitation of ATP by luminescent signal in correlation to a standard curve prepared for each cell line. Results are based on 3-5 biological replicates for each condition, error bars show standard deviation of mean.\nMultiple myeloma cells JJN-3 (DSMZ (Germany) no. ACC 541), ANBL-6 (Cellosaurus accession number CVCL_5425, obtained from Dr Diane Jelinek, Mayo Clinic, Rochester, Minn.), INA-6 (Cellosaurus accession number CVCL_5209, obtained from Dr M. Gramatzki, University of Erlangen-Nurnberg, Erlangen, Germany), RPMI-8226 (ATCC CCL-155), and IH-1 (Cellosaurus accession number CVCL_WZ44, established from the pleural effusion of a myeloma patient by Myeloma research group, IKOM, NTNU, Trondheim, Norway) were grown in RPMI-1640 (Sigma-Aldrich Norway, Oslo, Norway) supplemented with 100 nM penicillin/streptomycin and 10% FCS, and for ANBL-6, IH-1 and INA-6 cells 2 ng/ml recombinant IL-6 (Gibco, Thermo Fisher Scientific, Waltham, Mass., USA). […]"}, "TLR4": {"system": "TLR4", "assay": "Whole blood assay, LPS stimulation", "excerpt": "[…] Results are for at least 6 donors. The Wilcoxon matched-pairs signed rank test was used for statistical analysis between 2 groups in Prizm 8.2.1. In each graph, circles indicate whole blood pre-treated with water, squares indicate blood pre-treated with control peptide (average for treatment with Pen and C3-Pen), and triangles indicate pre-treatment with P7-Pen.\nTo evaluate the effect of peptides in an ex vivo system, a human whole blood model was used. Peripheral venous blood was drawn from 6 healthy donors into sterile polypropylene tubes (Thermo Scientific™ Nunc™ Biobanking and Cell Culture Cryogenic Tubes) containing the anti-coagulant Lepirudin (Refludan®; Celgene). […] Peptide solution or DPBS was distributed in equal volume (50 μL) to 1.8 mL sterile polypropylene tubes (Thermo Scientific™Nunc™ Biobanking and Cell Culture Cryogenic Tubes). […] Stimulation solutions were made by diluting K12 LPS or CL075 in DPBS to obtain a final concentration in whole blood of 100 ng/mL (LPS) or 1 μg/mL (CL075) after addition of 50 μL stimulation solution or DPBS. […] Tubes were incubated at 37° C. under constant rotation for 4 h. Finally, plasma was isolated from the whole blood specimens by centrifugation, collected in 96 well plates (Corning® 96 Well CellBIND® Microplates), and stored at −20/−80° C. until analysis by multiplex/27-plex cytokine assay or IFNβ ELISA (VeriKine-HS Human Interferon Beta Serum ELISA Kit; pbl Assay Science)."}, "E. coli particles": {"system": "E. coli particles", "assay": "Whole blood assay, E. coli particle stimulation"}}, "note": "Entries after “also recorded” stand apart in the source; their conditions may differ.", "data": [{"substance": "Ac-ITVAASVTLTGRQIKIWFQNRRMKWKK-NH2 [Peptide P7-A4-Pen]", "values": [{"measurement": "effect on THP-1 cell number", "setting": "THP-1 cells", "result": "anti-proliferative effect"}, {"measurement": "cell proliferation", "setting": "[1]", "result": "Minor effects; also recorded: inhibited cell proliferation"}]}, {"substance": "Ac-ITVYASVTLTGRQIKIWFQNRRMKWKK-NH2 [Peptide P7-Pen]", "values": [{"measurement": "TLR4-mediated IFNβ release by whole blood cells", "setting": "TLR4; 20 μM, LPS 100 ng/ml 4 h", "result": "effectively abrogated"}, {"measurement": "LPS/TLR4-induced TNF, IL-6 and IL-1β secretion", "setting": "TLR4; 20 μM, compared to control peptides", "result": "significant reduction"}, {"measurement": "E. coli-mediated IFNβ secretion", "setting": "E. coli particles; 20 μM, 4 h", "result": "significantly inhibiting"}, {"measurement": "E. coli-mediated IL-1β secretion", "setting": "E. coli particles; 20 μM, 4 h", "result": "no significant effect"}, {"measurement": "E. coli-mediated TNF production", "setting": "E. coli particles; 20 μM, 4 h", "result": "Significant inhibition"}, {"measurement": "E. coli-mediated IL-6", "setting": "E. coli particles; 20 μM, 4 h, not statistically significant", "result": "a degree of inhibition"}]}, {"substance": "Ac-ITVYASVTLTGRRRRRRRRRRR-NH2 [Peptide P7-Arg11]", "values": [{"measurement": "LPS-mediated IFNβ secretion by whole blood cells", "setting": "TLR4; pilot assay, 10 μM, LPS 100 ng/ml", "result": "inhibited"}, {"measurement": "E. coli-mediated IFNβ secretion by whole blood cells", "setting": "E. coli particles; pilot assay, 10 μM, E. coli particles", "result": "inhibited"}]}]}
